Laboratory results as given in PMC9769694, “Discovery of Two Inhibitors of the Type IV Pilus Assembly ATPase PilB as Potential Antivirulence Compounds” (Microbiology Spectrum, 2022).

Key:
Details in all cases: data not shown
[1] = test system: M. xanthus S motility; assay: T4P-mediated social (S) motility, colony expansion on soft agar; type: cell-based, Myxococcus xanthus
From the text: Benserazide and levodopa were examined to determine whether they could impact the T4P assembly function of PilB in vivo using M. xanthus as the model bacterium ([28]). […] Three M. xanthus strains were used for these experiments. Strain DK10416 lacks S motility because it is a pilB deletion (ΔpilB) mutant ([40]). The other two strains both assemble T4P and are proficient in S motility ([30]). Strain YZ1674 produces the wild-type (WT) M. xanthus PilB (MxPilB). YZ2232 expresses MC3PilB, a PilB chimera with the N terminus of MxPilB fused to the C-terminal ATPase domain of CtPilB ([30]). The PilB ATPase domains of MxPilB and MC3PilB are highly similar, with 66% shared identity and 77% similarity (Fig. S1).
FIG 5 Benserazide and levodopa inhibit T4P-mediated social (S) motility in Myxococcus xanthus. Expansion rates (cm/day) of the MxPilB (YZ1674) and the MC3PilB (YZ2232) strains on soft agar plates by S motility in the presence of (A and C) benserazide and (B and D) levodopa after 5 days of incubation. Results from three independent experiments are shown, each performed in quintuplicates with data points represented by dots of the same color. Horizontal black lines represent overall averages. Expansion rates were normalized by subtracting that of the ΔpilB strain, which has no S motility (also see Fig. S4). Asterisks (*) indicate that the values at the indicated concentrations are statistically different (P < 0.05) from those of the no-inhibitor control.
M. xanthus was grown and maintained at 32°C in Casitone-yeast extract (CYE) medium ([49]). Motility assays were conducted with strains DK10416 (ΔpilB) ([40]), YZ1674 (ΔpilB att::MxpilB) ([50]), and YZ2232 (ΔpilB att::MC3pilB) ([30], [51]) as previously described ([28]). One modification was that 10% India ink was included in the cell suspension to mark the initial spot on agar plates. All experiments were conducted in quintuplicates and the diameter of the initial spot, as marked by India ink, was subtracted for data analysis.

[2] = test system: A. nosocomialis twitching motility; assay: Twitching motility, crystal violet stained twitching area; type: cell-based, Acinetobacter nosocomialis
From the text: The inhibitors may thus interact with conserved features of the PilB ATPase family. A. nosocomialis PilB ([19]), whose N terminus is not similar to the MshEN domain (data not shown), shares ~53% identity and ~74% homology with MxPilB and MC3PilB in the ATPase domain (Fig. S1). We analyzed whether benserazide and levodopa could impact the T4P-powered twitching motility ([19], [44]) of A. nosocomialis (Fig. 7), an opportunistic pathogen in the Acinetobacter calcoaceticus-Acinetobacter baumannii (ACB) complex ([45]). As shown in Fig. 7A and B and Fig. S7, benserazide and levodopa impede the twitching motility of WT A. nosocomialis in a concentration-dependent manner.
FIG 7 Benserazide and levodopa inhibit Acinetobacter nosocomialis twitching motility and biofilm formation. (A and B) Twitching motility is correlated with the twitching area (cm^2) of the A. nosocomialis wild-type (WT) strain in the presence of (A) benserazide or (B) levodopa, with the control (no inhibitor) normalized to 1. Data are from 3 independent experiments, each performed in triplicates and represented by dots of the same color. (C and D) Biofilms formed by A. nosocomialis with (C) benserazide or (D) levodopa were analyzed by a microplate assay with crystal violet (CV) staining. Results from three independent experiments, each performed in quadruplicates and represented by dots of the same color, are shown. Horizontal lines indicate overall averages, and asterisks (*) signify that values at the indicated concentration are statistically different from those of the control (P < 0.05).
The A. nosocomialis wild-type M2 strain and an isogenic pilA deletion (ΔpilA) mutant ([19], [46]) were used in this study. They were grown and maintained using MacConkey medium at 37°C. The twitching motility of the M2 strain of A. nosocomialis was analyzed with 1% crystal violet (CV) for staining, and twitching areas were used as measures of motility as previously described ([46]). These motility assays were conducted in triplicates and the stained area of the ΔpilA mutant was subtracted from that of the WT for data analysis. A. nosocomialis biofilm formation was analyzed using microplates and CV staining as previously described ([53], [54]). The biofilm assays were conducted in quadruplicate in MacConkey medium with tissue culture-treated microtiter plates (Falcon). CV absorbance (Acv) was measured at 590 nm using Infinite M200 PRO in clear polystyrene 96-well microplates (ExtraGene). Absorbance for each well was read 16 times using Multiple Reads with the average as the final Acv value. Readings from control wells without bacteria were subtracted for normalization. Statistical differences were determined using a Student’s t test.

[3] = target: CtPilB (Chloracidobacterium thermophilum, UniProt G2LDI3); assay: Malachite green ATPase assay, dose response (benchtop); type: biochemical
Sequence of CtPilB (G2LDI3 entry or part of it): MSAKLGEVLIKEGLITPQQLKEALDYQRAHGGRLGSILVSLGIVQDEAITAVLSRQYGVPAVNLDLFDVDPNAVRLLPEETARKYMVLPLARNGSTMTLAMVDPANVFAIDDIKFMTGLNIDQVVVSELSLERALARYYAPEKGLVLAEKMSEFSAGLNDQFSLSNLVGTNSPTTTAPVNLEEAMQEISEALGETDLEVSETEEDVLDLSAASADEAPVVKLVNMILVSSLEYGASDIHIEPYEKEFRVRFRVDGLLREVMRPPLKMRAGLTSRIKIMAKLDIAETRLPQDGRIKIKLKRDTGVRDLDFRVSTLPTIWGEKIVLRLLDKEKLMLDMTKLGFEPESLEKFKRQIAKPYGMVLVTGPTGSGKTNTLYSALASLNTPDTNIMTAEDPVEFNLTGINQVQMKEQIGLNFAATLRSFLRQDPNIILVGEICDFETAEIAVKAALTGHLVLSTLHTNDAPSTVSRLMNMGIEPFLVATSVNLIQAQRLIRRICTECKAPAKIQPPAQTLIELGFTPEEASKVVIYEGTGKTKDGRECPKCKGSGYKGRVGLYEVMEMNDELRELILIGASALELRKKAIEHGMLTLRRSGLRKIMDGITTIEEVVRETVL
Method: The full-length CtPilB and the CtPilBΔN variant (with the first 139 residues at the N terminus truncated) were purified as preciously described ([29]). The HTS was conducted using 384-well microplates (Greiner, cat no. 781101). Each microwell for the screen contained a 15-μL reaction mixture consisting of 75 nM CtPilB, 0.5 mM ATP, 20 μM of a library compound, and 2% DMSO in activity buffer (50 mM N-tris(hydroxymethyl)methyl-3-aminopropanesulfonic acid [TAPS], 50 mM Tris, 75 mM KCl, 50 mM sodium acetate, 5 mM MgCl2, 50 mM ZnCl2 [pH 8.7]) ([29]). Reaction mixtures were incubated at 55°C for 10 min and transferred to ice for 5 min to stop the enzymatic reaction. MG reagent (50 μL) was added to each well for color development. After a 15-minute incubation, 5 μL of 34% (wt/vol) sodium-citrate (MP Chemicals) was added and the plate was mixed by shaking ([28], [29]). Absorbance at 620 nm (A620) was measured using a SpectraMax M5 microplate reader at room temperature. The HTS was performed at the Virginia Tech Center for Drug Discovery (VTCDD) Screening Laboratory.
The effects of inhibitors on the ATPase activity of CtPilB and CtPilBΔN and the binding of MANT-ATP were determined as described previously ([28], [29]). Stock solutions were prepared by dissolving benserazide hydrochloride (Alfa Aesar) or levodopa (Spectrum Chemical Mfg. Corp.) in dimethyl sulfoxide (DMSO; Fisher Biotech). Next, 10× working stocks for given concentrations of an inhibitor were freshly prepared before their use in an experiment. GraphPad Prism v7.04 was used for curve fitting and Student’s t test was used for statistical analysis.

N[C@@H](Cc1ccccc1)C(=O)O [phenylalanine]
no inhibitory effect: inhibitory effect on motility of M. xanthus in vivo [1] | inhibitory effect on motility of A. nosocomialis in vivo [2] | inhibitory effect on CtPilB in vitro [3]

N[C@@H](Cc1ccc(O)cc1)C(=O)O [tyrosine, 4-monohydroxyphenylalanine]
no inhibitory effect: inhibitory effect on motility of M. xanthus in vivo [1] | inhibitory effect on motility of A. nosocomialis in vivo [2] | inhibitory effect on CtPilB in vitro [3]
